Laboratory results: PMC5055185, “Dual pharmacological inhibition of glutathione and thioredoxin systems synergizes to kill colorectal carcinoma stem cells” (Cancer Medicine, 2016)
Several values for one entry are separate records, joined by “and”; a condition that tells them apart may be missing. Equal entries are not always repeated.

Assays:
[1] = test system: CTOS86 colorectal cancer tissue‐originated spheroids; assay: cell survival (trypan blue exclusion, 5 days), CTOS86; assay type: cell-based, human; conditions: for IC50: CTOS86, cellular survival, 5 days; for Ratio of survived cells (Drugs treated/Untreated), Average / Ratio of survived cells (Drugs treated/Untreated), single passage points #: CTOS#86
Excerpt: All experimental procedures were approved by the animal facility at Dokkyo Medical University (ID: 951) and were described elsewhere 10. The existence of CSCs has been experimentally proven through serial xenotransplantation and tumorigenesis 2, 14. […] These subcutaneous tumors were again subjected to enzymatic dissociation and some of the tumor cells were subcutaneously transplanted into other mice. […] Seven cases (CTOS:40, 42, 68, 71, 76, 86, 88) were used for in vitro experiments.
Modified procedures of CTOS culture 16 were described elsewhere 10. […] The culture medium was serum‐free advanced DMEM/F‐12 (GIBCO, Waltham, MA) supplemented with FGF‐2 (10 ng/mL, ReproCell, Yokohama, Japan), penicillin ([…], Wako, Osaka, Japan), streptomycin (0.1 mg/mL,Wako), gentamicin (50 μg/mL, Wako), and fungizone (0.25 μg/mL, GIBCO). DLD‐1 and HCT116 CRC cell lines were purchased from JCRB Cell Bank (Osaka, Japan) and RIKEN BioResource Center (Ibaraki, Japan), respectively. In order to estimate pharmacological side effects against normal tissues, human diploid fibroblasts were purchased (JCRB Cell Bank) as model cells. The origins of the fibroblasts were as follows: OUMS‐36 (embryo), TIG‐3 (fetal lung), TIG‐111 (dermal fibroblasts [DFs] from individual), TIG‐119 (DFs from individual), and TIG‐102 (DFs from individual). Adult DFs were purchased from Kurabo (Osaka, Japan). CRC cell lines and fibroblasts were maintained under supplier‐recommended culture conditions. Since the culture conditions are different between fibroblasts and CTOSs, we need to be cautious about the interpretation of data (i.e., lateral comparison between them). […] Colorectal CTOSs display augmented survival through maintaining epithelial structure with E‐cadherin 16. On the other hand, the establishment of conventional cell lines (adherent culture) are much less efficient because constant cell division and autonomous survival are required for the procedure. When we choose CTOSs instead of cancer cell lines, we lose the equivalent condition (adherent culture) as a trade‐off.
Each drug's half‐maximal inhibitory concentration (IC50) was calculated based on live cell number ratios (drug treated/untreated × 100%) obtained from serial dilution of drug concentration. The length of drug exposure was 5 days. Each number of live cells was counted automatically by trypan blue exclusion (LUNA automated cell counter, Logos Biosystems, Anyang, South Korea). Cancer spheroids were dispersed with serial treatments (20 min each) of TrypLE™ and Accumax™. Thus, IC50 was determined based on cellular survival, but not on proliferation.

[2] = test system: NRF2 target genes in colorectal CTOSs; assay: qRT-PCR of NRF2 and TP53 target genes in colorectal CTOSs; assay type: cell-based, human
Description: (§1) Total RNA was purified using RNAiso Plus (Takara, Osaka, Japan). Reverse transcription was performed using PrimeScript™ with gDNA Eraser (Takara). For quantifying the copy number of each mRNA, we used a StepOne™ Real‐Time PCR System (Applied Biosystems, Waltham, MA) and the Taqman® method. Data were calculated according to the modified delta‐cycle of threshold (ΔCT) method. Normalized Log2 expression was defined as follows: (Log2 expression of a gene of interest) = 30 (arbitrary constant) + (CT of 18S rRNA) − (CT of a gene of interest). We used Log2 parameter for statistical analysis because mRNA expression follows a log‐normal distribution, whereas ΔCT follows normal distribution. A gene‐specific fluorescent probe was designed using a web‐based program (https://qpcr.probefinder.com/organism.jsp). […] Gene‐specific Taqman® probes were purchased from Life Technologies, (Waltham, MA, for Cat#, see Table S1 SpreadSheet2). For PCR, Thunderbird® Probe qPCR mix (Toyobo, Osaka, Japan) was used and the PCR conditions consisted of 40 cycles of two steps (95°C for 15 sec and 60°C for 50 sec).
In order to judge the effect of drug treatments on gene expression, a repeated measures one‐way analysis of variance (ANOVA) was used to determine the variance of Log2 expression from four different groups (untreated, auranofin, CB83, and piperlongumine) using SPSS. Subsequently, the effect of each drug was determined by a paired t test as a post hoc analysis. The P‐values < 0.05 were defined as statistically significant.
In order to estimate NRF2 compensation induced by pharmacological inhibition of TXNRD (auranofin), G6PD (CB83), or GSTπ (piperlongumine), we quantified gene expression of NRF2 target genes. Activation of NRF2 protein was confirmed by NRF2 phosphorylation (Fig. S5A).

[3] = test system: NRF2 target genes in human embryonic fibroblasts OUMS36 or TIG-3; assay: qRT-PCR of NRF2 and TP53 target genes in fibroblasts; assay type: cell-based; conditions: auranofin 2 μmol/L or piperlongumine 5 μmol/L for 24 h
Description: as §1
To investigate whether NRF2 compensation occurs in fibroblasts, we quantified gene induction of NRF2 target genes by auranofin (2 μmol/L for 24 h) or piperlongumine (5 μmol/L for 24 h). […] Basal phosphorylation of NRF2 was lower in fibroblasts, compared to CTOSs (Fig. S5B). The significance of expression changes due to the exposure were as follows: GCLM (Fig. S6, Aura: P = 0.001, up‐regulated, Pipe: P = 0.009, up‐regulated), TXNRD1 (Fig. S6, Aura: P = 0.001, up‐regulated, Pipe: P = 0.439), and G6PD (Fig. S6, Aura: P = 0.001, up‐regulated, Pipe: P = 0.130).
Human embryonic fibroblasts OUMS36 or TIG-3 was incubated with designated concentration of inhibitor for 24 hours. mRNA expression of each gene was quantified by real-time RT-PCR and expression level was indicated as relative Log2 expression. Each bar indicates mean value of Log2 expression (n=3 at different passage points). Error bar indicates standard deviation. P-values of difference are described in Results.

[4] = higher dose (auranofin 4, CB83 25, piperlongumine 10 μmol/L) for 24 h
[5] = lower dose (auranofin 2, CB83 12.5, piperlongumine 5 μmol/L) for 48 h

CC[PH](CC)(CC)[Au][S][C@@H]1O[C@H](COC(C)=O)[C@@H](OC(C)=O)[C@H](OC(C)=O)[C@H]1OC(C)=O [Aura, Auranofin]
IC50 [1]: 3.02 µM | Ratio of survived cells (Drugs treated/Untreated), Average ([1]; Aura 1 microM): 83.5% | Ratio of survived cells (Drugs treated/Untreated), single passage points # ([1]; Aura 1 microM): 75% and 92% | Ratio of survived cells (Drugs treated/Untreated), Average ([1]; Aura 2 microM): 64.5% | Ratio of survived cells (Drugs treated/Untreated), single passage points # ([1]; Aura 2 microM): 67% and 62% | G6PD mRNA expression change [2, 4]: up‐regulated | GCLM mRNA expression change [2, 4]: up‐regulated | TXNRD1 mRNA expression change [2, 4]: up‐regulated | G6PD mRNA expression change [2, 5]: up‐regulated | GCLC mRNA expression change [2, 5]: up‐regulated | GCLM mRNA expression change [2, 5]: up‐regulated | ME1 mRNA expression change [2, 5]: up‐regulated | TXN mRNA expression change [2, 5]: up‐regulated | TXNRD1 mRNA expression change [2, 5]: up‐regulated | G6PD mRNA expression change [3]: up‐regulated | GCLM mRNA expression change [3]: up‐regulated | TXNRD1 mRNA expression change [3]: up‐regulated

COc1cc(/C=C/C(=O)N2CCC=CC2=O)cc(OC)c1OC [Pipe, Piperlongumine]
IC50 [1]: 7.12 µM | Ratio of survived cells (Drugs treated/Untreated), Average ([1]; Pipe 2.5 microM): 79% | Ratio of survived cells (Drugs treated/Untreated), single passage points # ([1]; Pipe 2.5 microM): 79% | Ratio of survived cells (Drugs treated/Untreated), Average ([1]; Pipe 5 microM): 60% | Ratio of survived cells (Drugs treated/Untreated), single passage points # ([1]; Pipe 5 microM): 69% and 51% | Ratio of survived cells (Drugs treated/Untreated), Average ([1]; Pipe 10 microM): 39.5% | Ratio of survived cells (Drugs treated/Untreated), single passage points # ([1]; Pipe 10 microM): 39% and 40% | G6PD mRNA expression change [2, 4]: up‐regulated | GCLM mRNA expression change [2, 4]: up‐regulated | TXNRD1 mRNA expression change [2, 4]: up‐regulated | G6PD mRNA expression change [2, 5]: up‐regulated | GCLM mRNA expression change [2, 5]: up‐regulated | TXNRD1 mRNA expression change [2, 5]: up‐regulated | GCLM mRNA expression change [3]: up‐regulated
